The test system of test [1] is E. coli S30 extract transcription-translation system. Put plainly: Inhibition of protein synthesis in E. coli cell-free transcription-translation system. The test is classed as biochemical. Particulars: E. coli S30 lysate, pBESTluc plasmid, 0.05 to 100 μM, 1 h at 37°C, luminescence; mean ±SD of three technical replicates. The procedure: The impact of MKM-A and MKM-E on in vitro protein synthesis was evaluated using the E. coli S30 extract transcription-translation system (Promega) following the manufacturer’s protocol. The pBESTluc plasmid DNA was utilized as the template to produce firefly luciferase. MKM analogues were tested across a concentration range of 0.05 to 100 μM. The reactions were incubated for one hour at 37°C. Luminescence was then measured in opaque 96-well plates using a Synergy Microplate Reader (Biotek). The IC50 values, indicating the concentration at which MKMs inhibited protein synthesis by 50%, were determined using GraphPad Prism 10 software.

Test [2] addresses rabbit reticulocyte lysate. Nature of the test: Inhibition of protein synthesis in rabbit reticulocyte lysate programmed with luciferase mRNA. The test is classed as biochemical.
The test system of a further test is bacterial membrane. Nature of the test: Membrane permeabilization (propidium iodide uptake and NPN assays). The test is classed as cell-based. Particulars: E. coli BW25113; PI 4 μM up to 10×MIC (80 μg/ml), NPN 10 μM; 30 min, room temperature. The method, then:
E. coli BW25113 cells were prepared according to the method for time-dependent killing and mixed with propidium iodide at a final concentration of 4 μM. A 190 μl aliquot of the cell suspension was added to the wells of a 96-well black-wall plate, followed by the addition of 10 μl of compounds at different concentrations up to 10×MIC (80 μg/ml). Colistin (5 μg/ml) was included as a positive control. Fluorescence was measured at an excitation/emission wavelength of 535/617 nm for 30 min at room temperature using a Synergy Microplate Reader (Biotek).
An overnight culture of E. coli BW25113 was subcultured into fresh MOPS minimal medium and allowed to grow until reaching mid-exponential phase. The culture was then diluted to an OD 600 of 0.1–0.2 in the same medium and supplemented with 10 μM NPN dye (prepared from a 20 mM stock solution in acetone). A volume of 190 μl of this cell suspension was combined with 10 μl of test compounds at various concentrations in a black 96-well plate. Water served as the vehicle control, as MKM-A was dissolved in water (adjust the vehicle accordingly based on the solubility of your compound). Colistin at 5 μg/ml was included as a positive control. Fluorescence was measured over a 30 min period at room temperature using a microplate reader, with readings taken every 0.5–1 min at an excitation/emission wavelength of 350/420 nm.

The test system of test [3] is E. coli BW25113. Nature of the test: Bacterial cell morphology by scanning electron microscopy. The test is classed as cell-based. Particulars: E. coli BW25113, 32 and 80 μg/ml, MOPS minimal medium, 1 h at 37°C. The method, then: After treatment, the cells were centrifuged at 5,000×g for 5 min, then resuspended in a fixative solution (4% glutaraldehyde in PBS, pH 7.4) at 0.1× the original volume. The cells were fixed at room temperature for 1 h and stored overnight at 4 °C. The following day, 50 μl of the fixed cells were transferred onto coverslips coated with poly-L-lysine, dehydrated through a series of ethanol treatments, and dried using a critical point dryer. The samples were then examined with a scanning electron microscope (TESCAN VEGA-II LSU) equipped with an X-MAX 80mm^2 EDS detector, and images were captured using INCA software.

The test system of another test is Klebsiella pneumoniae. Put plainly: Antimicrobial activity, Klebsiella pneumoniae. The test is classed as cell-based.
Another test deals with mycobacteria. Nature of the test: Antimicrobial activity, mycobacteria. The test is classed as cell-based. The settings on record: Middlebrook 7H9 + 10% OADC + 0.05% Tween-80.
In test [4] the test system is E. coli BW25113. Nature of the test: Time-dependent killing assay, E. coli. The test is classed as cell-based. Particulars: E. coli BW25113, MHB, 5×MIC (160 μg/ml), 37°C, 0-24 h; mean of three biological replicates. The method, then:
E. coli BW25113 and Klebsiella pneumoniae C1559 were grown overnight in 5 ml of cation-adjusted Mueller-Hinton Broth. The cultures were then inoculated into fresh medium to achieve an OD600 of 0.1, corresponding to a concentration of 10^8 CFU/ml. […] Samples were taken at 0 h, 3 h, 6 h, and 24 h post-incubation, plated on MHA plates, and incubated for 20–24 hours at 37°C. Colony counts were used to determine the log reduction in CFU/ml, comparing treated strains to untreated control samples.

Another test deals with K. pneumoniae C1559. Nature of the test: Ex vivo efficacy in human blood. Format: cell-based, Klebsiella pneumoniae. Particulars: K. pneumoniae C1559, 10^5 cfu/ml, 5×MIC of MKM, six hours, 37°C; three biological experiments. The method, then: Human blood was procured from BioIVT (New York, USA). […] CFUs were determined by serial dilution and cultivation on agar.
A further test is described as follows: Murine infection model. The test is classed as in vivo. Particulars: initial attempts.
Test [5] has as its system E. coli strain SQ110ΔtolC::pZsbmA. The settings on record: agar with 4×MIC of MKM (32 μg/ml).
In another test the test system is ribosome. Nature of the test: Ribosome profiling (Ribo-seq).
Test [6] deals with E. coli BW25113 ΔtolCΔbamB expressing ManE. Nature of the test: MIC in ManE-expressing E. coli. Particulars: manE on pGDP3.
For test [7], the system named is E. coli strain SQ110ΔtolC::pZsbmA. Nature of the test: Minimum inhibitory concentration, hypersusceptible E. coli SQ110ΔtolC::pZsbmA and its 23S rRNA mutants. The settings on record: 11 mutants: deletion of one adenine in A2432-A2435 (10) or of C249 (1) in 23S rRNA.

SMILES strings stand for the structures. “Also recorded” adds a separate entry of the source. Where a SMILES comes first, the peptide text is derived from it. Bridges are numbered along the chain shown (N, C = ends). [ ]: non-standard residue; d: D form. dOrn = NCCC[C@@H](N)C(=O)O

On to `C[C@@H](O)[C@@H]1NC(=O)[C@@H](CCCNC(=N)N)NC(=O)[C@@H](CCCNC(=N)N)NC(=O)[C@@H](CC(N)=O)NC(=O)[C@@H](NC(=O)[C@@H](Cc2ccccc2)NC(=O)[C@@H](CCCN)NC(=O)[C@H](N)CCCNC(=N)N)[C@@H](C)OC(=O)[C@H](Cc2c[nH]cn2)NC1=O` [MKM, manikomycin A] (H-[dR][dOrn][dF]T[dN][dR][dR]TH; ester 4-C), for which the IC50 in test [1] is 0.6 µM; in test [2] (rabbit reticulocyte lysate, luciferase mRNA), 9.2 µM. Also, the “IC50 ratio rabbit reticulocyte lysate / bacterial system” value in [2] (IC50 9.2 μM vs 0.6 μM in E. coli system) was “approximately 15 fold”. The “inhibition of eukaryotic / mammalian translation (in words)” value in test [2] (rabbit reticulocyte lysate (Fig. 2d)) was “poor inhibition; also recorded: very weak inhibitor”. In test [2] (rabbit reticulocyte lysate, higher than cycloheximide), the “IC50 ratio to cycloheximide” value is 35 fold. In addition, the “membrane permeabilization / disruption” value in the test with bacterial membrane was “failed to permeabilize or distrupt the bacterial membrane”. In addition, the bacterial cell morphology entry with E. coli BW25113 [3] is “no detectable changes in bacterial cell morphology”. In addition, the antimicrobial activity entry in the test on Klebsiella pneumoniae is “selective antimicrobial activity”. Besides, the growth inhibition result in the test on mycobacteria is listed as “readily inhibits the growth”. For the same compound, the time-kill effect entry in the test on E. coli BW25113 [4] was “bactericidal”. The “bacterial eradication in human blood” value in the test with K. pneumoniae C1559 was “complete eradication”. For the same compound, in “Murine infection model”, the “protective effect in murine infection model” value is given as “did not yield a strong protective effect”. In addition, the “frequency of resistant colonies” value in [5] was ~ 10^−7. In the test with ribosome (E. coli BL21ΔtolC, 50 μg/ml (25×MIC), 2 min), the metagene ribosome occupancy result was “increased ribosome occupancy at the early mRNA codons”. For the same compound, the “codon depletion at MKM-induced arrest sites” value with ribosome (E. coli BL21ΔtolC, 50 μg/ml (25×MIC), 2 min, pLogo) is reported as “exclusion of Thr at the sites of MKM-induced arrest”. Further, the “codon enrichment at MKM-induced stalling sites” value in the test with ribosome (E. coli BL21ΔtolC, 50 μg/ml (25×MIC), 2 min, pLogo, sites with ≥5-fold higher occupancy) is “enrichment of Pro codons in the P and A sites”. In addition, the “context specificity of action (summary)” value with ribosome (ribosome profiling and toeprinting, Pro, Leu, Thr codons) is “more efficiently inhibiting ribosomes translating Pro and Leu codons and exhibiting less effect on those translating Thr codons”. Further, the “increase in MIC on ManE expression” value in [6] is given as over 32 fold. Further, the “increase in MKM MIC” value in test [7] is over 16 fold.

The values are drawn from paper PMC12236907, “A Natural Depsipeptide Antibiotic that Targets the E site of the Bacterial Ribosome” (Research Square, 2025).
